Where “and” joins values, the source holds several entries; their conditions need not be identical. Identical values can stand only once. Like-named read-outs stand apart in the source and are kept apart here.
Key:
[1] = target: T1, Rba. sphaeroides reaction centre (QB site) (Cereibacter sphaeroides, UniProt P0C0Y8); experiment: Kinetics of charge recombination in photo-oxidised reaction centres in solution (absorbance at 865 nm); assay type: biochemical, Rhodobacter sphaeroides; settings: for effect on recombination rate (in words): 500 µM agent; for τ1 / A1 / τ2 / A2: 500 µM inhibitor; for τ1 / τ2: 13.2 µM reaction centres, 30 µM UQ0, ± standard error; for A1: amplitude of τ1 component; for A2: amplitude of τ2 component
T1 construct: made in house; host or cells: Rba. sphaeroides strain DD13 carrying plasmid pvLMt (written pvLMtX)
Experimental: Analysis of the effects of herbicides or inhibitors on the kinetics of charge recombination was performed using a Cary60 spectrophotometer connected to an external 1 cm cuvette holder (Ocean Optics) via a fibre-optic coupler. A white light pulse of 50 ms duration was applied to the sample cuvette at 90° to the pulsed measuring beam by an HL-2000-FHSA white light source with a fast shutter (Ocean Optics) delivering approximately 25 W m^−2 illumination at the cuvette surface. The actinic pulse was triggered by a TGP110 pulse generator (Thurlby Thandur Instruments). […] Test samples were loaded into to a 3×3 mm fluorescence cuvette (Hellma) aligned to the measuring and excitation pulses and absorbance at 865 nm was measured for 20 s after delivery of the light pulse, with a further period of at least 60 s to allow full dark adaptation of the reaction centres before re-excitation. A set of eight kinetic traces were recorded for each sample, averaged, and fitted using a single or double exponential function in Origin 8 (OriginLab).
To ensure this pattern of results was not specific to the conditions within the photoelectrochemical cell, the ability of these inhibitors to replace ubiquinone at the QB site was also tested by measuring the rate of recombination from QA and QB to the primary donor bacteriochlorophyll (P) after excitation with a pulse of white light (see Section 2). As outlined in Section 1, recombination of P^+QA^− or P^+QB^− occurs with lifetimes of ~100 ms and ~1 s, respectively. As the QB quinone is partially lost during purification of reaction centres, assays were conducted in the presence of 30 µM UQ0 to reconstitute QB, the reaction centre concentration being 13.2 µM.

[2] = target: T1, Rba. sphaeroides reaction centre (QB site); experiment: Inhibition of photocurrent generation in photoelectrochemical cell with reaction centres adhered to a gold electrode; assay type: biochemical, Rhodobacter sphaeroides; settings: for LOD (IC5): calculated from IC50 and Hill coefficient, 5% change in current; for inhibition of the QB site / photocurrent (in words): present study, detergent-free buffer
Experimental: To adhere reaction centres the cleaned gold electrode was immersed in 25 µL of a 1 mg mL^−1 (approximately 10 µM) solution of purified reaction centres in 20 mM Tris (pH 8.0)/0.1% LDAO for 1 h at 4 °C in dark. Unbound reaction centres were removed by dipping the electrode in ice-cold 20 mM Tris (pH 8.0) three times. The coated gold electrode was assembled into a glass-bottomed cell along with a Pt counter electrode (Radiometer Analytical), and an Ag/AgCl reference electrode (Radiometer Analytical). The cell was filled with 1 ml of 20 mM Tris (pH 8.0) containing 20 µM horse heart cyt c and 30 µM UQ0 (both from Sigma-Aldrich) and placed above a shutter-controlled 1.5 W 880 nm LED light source (Roithner LaserTechnik), resulting in an illumination intensity of 46 mW cm^−2 at the working electrode. A potential of −100 mV vs SCE was applied and photocurrents measured by chronoamperometry using the Autolab PGSTAT128N potentiostat (Metrohm) controlled by the PC running Autolab Nova 1.4 software (Metrohm).
The cell was incubated for 1 min before measurement of a 30 s photocurrent. All herbicides and inhibitors were purchased from Sigma-Aldrich, and their structures are shown in Supplementary Fig. 2.
For titrations, the photocurrent from a freshly prepared cell was measured for 30 s before and after the addition of increasing concentrations of atrazine, terbutryn or stigmatellin prepared in 20 mM Tris (pH 8.0)/20 µM cyt c/30 µM UQ0. After each addition the cell was equilibrated for 60 s before measuring the photocurrent, which was sufficient to allow stabilisation of the applied current required to maintain a potential of −100 mV vs SCE. Maximal photocurrents were plotted as a function of inhibitor concentration and fitted with a logistic function to determine the IC50 and IC5 (see text). These IC50 values were used to estimate Ki using the Cheng–Prusoff equation (see text).
To quantify the sensitivity of photocurrent generation to atrazine, terbutryn and stigmatellin the maximal photocurrent after a standard period of 30 s was recorded as a function of herbicide or inhibitor concentration. The titration data, expressed as the percentage of the maximum current in the absence of the herbicide/inhibitor, were fitted to a logistic function (Eq. (1)) to determine the IC50.(1) Y=Min+Max−Min/1+([Inhibitor]/IC50)^−HillCoefficient where Max and Min are maximal and minimal photocurrents, respectively. […] Based on this, the LOD can be represented by an IC5 value that can be calculated from the parameters of the IC50 fit (Eq. (2)).
To compare the sensitivity of our photochemical cell device to previous studies employing Rba. sphaeroides reaction centres, the IC50 values were converted to values for the binding affinity of the inhibitor (Ki) using the Cheng–Prusoff equation (Eq. (3)) ([Cheng and Prusoff, 1973])(3) Ki=IC50/1+([S]/Km) where [S] is the substrate concentration and Km is the measured Michaelis constant for UQ0 (see above).

[3] = target: T2, Rba. sphaeroides reaction centre quinone reductase (QB) site (Cereibacter sphaeroides, UniProt P0C0Y8); experiment: Determination of the Km(apparent) for UQ0 from photocurrent density; assay type: biochemical, Rhodobacter sphaeroides; settings: detergent-free buffer, Michaelis–Menten fit
T2 construct: made in house; host or cells: Rba. sphaeroides strain DD13 carrying plasmid pvLMt (written pvLMtX)
Experimental: Photovoltaic cells were assembled as described above but with the omission of UQ0. Photocurrents of 30 s duration were measured in the absence of UQ0 and after the addition of increasing amounts of UQ0. Maximal currents from three titrations were averaged, plotted as a function of UQ0 concentration then fitted with the Michaelis–Menten equation using Origin 8.0 (OriginLab).
To optimise the concentration of the substrate for the reaction centre quinone reductase (QB) site in the cell the Km^(apparent) for UQ0 was determined by measuring the maximum photocurrent density during a 30 s period of illumination as a function of increasing concentrations of UQ0. A concentration-dependent increase in the photocurrent amplitude was obtained, which was fitted with the Michaelis–Menten equation (Supplementary Fig. 3). […] This Km^(apparent) for UQ0 is, to our knowledge, the strongest reported to date. […] As the present assay was conducted in detergent-free buffer, the stronger Km^(apparent) obtained is consistent with this trend.

reaction centre QB site = target: reaction centre QB site; set-up: method as in earlier work; settings: ref McComb et al., 1990, Paddock et al., 1988, Gerencsér and Maróti, 2008, cited from earlier work
[4] = target: QB site in the Rba. sphaeroides reaction centre; set-up: method as in Stein et al., 1984; settings: 1 μM reaction centres, 10 mM Tris (pH 8.0), 100 mM NaCl, 0.06% TX-100, 20 μM UQ10; ref Stein et al., 1984; cited from earlier work
[5] = tested on: Blc. viridis reaction centres (tyrosine to phenylalanine mutant near QB pocket); set-up: method as in Sinning et al., 1989; settings: ref Sinning et al., 1989, cited from earlier work
[6] = tested on: Blc. viridis reaction centre; set-up: method as in Sinning et al., 1989; settings: ref Sinning et al., 1989; cited from earlier work
PSII = settings: cited from earlier work
spinach thylakoids = tested on: spinach thylakoids; set-up: method as in Touloupakis et al., 2005; settings: albumin glutaraldehyde matrix; ref Touloupakis et al., 2005; cited from earlier work
[7] = mutant vs normal reaction centre
[8] = PSII complexes in glutaraldehyde–BSA matrix on graphite electrode, ref Koblížek et al., 2002
[9] = PSII reaction centres or BBY particles on screen printed gold electrodes, ref Bhalla and Zazubovich, 2011

| SMILES | effect on recombination rate (in words) [1] | τ1 [1] [s] | A1 [1] [%] | IC50 [2] [µM] | Ki [2] [µM] | photocurrent remaining ([2]; 100 µM agent) | LOD (IC5) [2] [nM] | inhibition of the QB site / photocurrent (in words) [2] | τ2 [1] [s] | A2 [1] [%] | photocurrent remaining ([2]; 500 µM agent) | Kd [4] [µM] | further results |
| --- | --- | --- | --- | --- | --- | --- | --- | --- | --- | --- | --- | --- | --- |
| C/C=C(C)/C=C/C=C/[C@H](OC)[C@@H](C)[C@@H](OC)[C@@H](C)CCc1oc2c(O)c(OC)cc(OC)c2c(=O)c1C [stigmatellin] | accelerated significantly | 0.095 ± 0.003 | 100 | 0.28 ± 0.06 | 0.165 | less than 10% | 8.3 | strong inhibition | – | – | – | – | LOD (IC5) ([2]; listed as Stigmatellin): 10 nM |
| COc1cc(CNC(=O)CCCC/C=C/C(C)C)ccc1O [capsaicin] | unaffected | 0.152 ± 0.011 | 41.0 ± 3.8 | – | – | – | – | – | 1.19 ± 0.03 | 59.0 ± 2.2 | greater than 80% | – | – |
| COC1=C(OC)C(=O)C(C)=CC1=O [UQ0, ubiquinone-0] | – | – | – | – | – | – | – | – | – | – | – | – | Km [3]: 42 ± 2 µM; Kd (reaction centre QB site; 0.0025% LDAO): 175 µM and 90 µM; Kd (reaction centre QB site; 0.06% LDAO): 480 µM; Kd (reaction centre QB site; 0.1% LDAO): 600 µM |
| CCNc1nc(NC(C)(C)C)nc(SC)n1 [terbutryn] | accelerated significantly | 0.152 ± 0.004 | 100 | 0.208 ± 0.01 | 0.123 | less than 10% | 8.3 | strong inhibition | – | – | – | 3 | decrease in sensitivity to inhibitor in mutant [5, 7]: 660 fold |
| N#Cc1cc(Br)c(O)c(Br)c1 [bromoxynil] | unaffected | 0.038 ± 0.009 | 36.1 ± 12.4 | – | – | – | – | ineffective | 1.14 ± 0.04 | 63.9 ± 2.2 | greater than 80% | 30 | – |
| CN(C)C(=O)Nc1ccc(Cl)c(Cl)c1 [DCMU, 3-(3,4-dichlorophenyl)-1,1-dimethylurea] | unaffected | 0.179 ± 0.012 | 51.7 ± 3.7 | – | – | – | – | – | 1.18 ± 0.04 | 48.3 ± 3.7 | – | > 800 | inhibitor grouping (in words) [6]: very weak inhibitors; increase in affinity in mutant ([5]; single tyrosine to phenylalanine change): at least four orders of magnitude |
| CCNc1nc(Cl)nc(NC(C)C)n1 [atrazine, N^2-ethyl-6-chloro-N^4-isopropyl-1,3,5-triazine-2,4-diamine] | accelerated significantly | 0.212 ± 0.004 | 100 | 2.1 ± 0.1 | 1.2 | less than 10% | ~50 | strong inhibition | – | – | – | 120 | IC50 (PSII; [8]): 0.09 µM; LOD (PSII; [8]): 2 nM; IC50 (PSII; PSII on screen printed Pt electrode in glutaraldehyde–BSA–glycerol matrix, ref Masojídek et al., 2011): 0.89 µM; IC50 (PSII; [9]): 0.049 µM; LOD (PSII; [9]): 1.15 nM; IC50 (spinach thylakoids): 0.1 µM; LOD (spinach thylakoids): 12.7 nM; LOD (IC5) ([2]; listed as Atrazine): 49 nM |
| N#Cc1cc(I)c(O)c(I)c1 [ioxynil] | – | – | – | – | – | – | – | – | – | – | – | – | inhibitor grouping (in words) [6]: very weak inhibitors; increase in sensitivity to inhibitor in mutant [5, 7]: 100 fold |
| CC(C)N1C(=O)c2ccccc2NS1(=O)=O [bentazon] | unaffected | 0.129 ± 0.015 | 39.0 ± 5.8 | – | – | – | – | weak inhibition | 1.09 ± 0.03 | 61.0 ± 3.0 | greater than 80% | – | – |
